pIC50: −log10 of the molar value. Values joined by “and” are separate entries in the source; they are usually repeats but may differ in a detail not shown here. Identical values can stand only once. “Also recorded” adds a separate entry of the source.
What was measured:
MCF7 = assay: Antiproliferative activity, MTT assay; assay type: cell-based; settings: Homo sapiens, 72 h, standard deviations within 50%
Experimental: (§1) Human breast cancer MCF7, MDA-MB-231, SkBr-3 (purchased from the ATCC collection), human keratinocytes HaCaT, murine fibroblasts L929 and macrophages J774 cells (Collection of Shemyakin-Ovchinnikov Institute of Bioorganic Chemistry RAS) were cultured in standard DMEM or RPMI-1640 medium (ThermoScientific, Waltham, MA, USA) supplemented with 10% fetal bovine serum (FBS, Cytiva, Marlborough, MA, USA) at 37 °C, 5 % CO2 and 80–85% humidity (NuAir CO2 incubator). The cell growth was evaluated by MTT (3-[4,5-dimethylthiazol-2-yl]-2,5-diphenyltetrazolium bromide) test. Cells were seeded at a density of 5 × 10^3 cells per well in 96-well flat-bottomed plates (TPP). The compounds were dissolved in DMSO (AppliChem) to 10 mM before the experiments, and then the resulting solutions were diluted by the medium to the required concentrations. Solutions of the tested compounds with different concentrations in 100 μL of the medium were added and the cells were grown for 72 h. MTT (10 μL/well, 5 mg/mL) was added for the final 3 h. The formazan purple crystals were dissolved in DMSO (100 μL per well). The absorbance of solutions was measured at 540 nm with a MultiScan reader (ThermoFisher). Results were analyzed by Excel package (Microsoft). The inhibition of proliferation (inhibitory index) was calculated as [1–(ODexperiment/ODcontrol)], where OD was MTT optical density. IC50 (Table 1) was determined as the concentration giving 50% of inhibition in the comparison with it […].

keratinocytes HaCaT = assay: Antiproliferative activity, MTT assay; assay type: cell-based; settings: Homo sapiens, 72 h, standard deviations within 50%
Experimental: as §1

MDA-MB-231 = assay: Antiproliferative activity, MTT assay; assay type: cell-based, human
Experimental: as §1

fibroblasts L929 = assay: Antiproliferative activity, MTT assay; assay type: cell-based, murine; settings: Mus musculus, 72 h, standard deviations within 50%
Experimental: as §1

macrophages J774 = assay: Antiproliferative activity, MTT assay; assay type: cell-based, murine; settings: Mus musculus, 72 h, standard deviations within 50%
Experimental: as §1

[1] = tested on: PI3K/Akt/mTOR signaling pathway in MCF7 cells; assay: Immunoblotting of PI3K/Akt/mTOR phosphorylation; assay type: cell-based, human
Experimental: (§2) MCF7 cells were seeded onto 100 mm dishes (Corning) and cultivated for 24 h. Compound 7c was added at different concentrations while the reference compound wortmannin (Selleckchem, Houston, TX, USA) was used at 500 nM. The cells were harvested after 72 h of growth with the compounds. To prepare cell extracts, MCF7 cells were twice washed in phosphate buffer and incubated for 10 min on ice in the modified lysis buffer containing 50 mM Tris-HCl, pH 7.5, 0.5% Igepal CA-630, 150 mM NaCl, 1 mM EDTA, 1 mM DTT, 1 mM PMSF, 0.1 mM sodium orthovanadate and aprotinin, leupeptin, pepstatin (1 µg/mL each). The protein content was determined by the Bradford method. Cell lysates were separated in 10% SDS-PAGE under reducing conditions, transferred to a nitrocellulose membrane (GE HealthCare, Chicago, IL, USA), and processed according to a standard protocol. To prevent nonspecific absorption, the membranes were treated with 5% nonfat milk solution in TBS buffer (20 mM Tris, 500 mM NaCl, pH 7.5) with 0.1% Tween-20 and then incubated with primary antibodies (Cell Signaling Technology, Danvers, MA, USA) overnight at 4 °C. […] Signals were detected using the ECL reagent using the ImageQuant LAS4000 system (GE HealthCare, Chicago, IL, USA).
(§3) The signals of phospho-proteins to total ones were calculated using the ImageJ program from inverted images of the bands.

PARP1 in MCF7 cells = assay: Immunoblotting of PARP1 cleavage; assay type: cell-based, human
Experimental: as §2, §3

[2] = tested on: colorectal murine tumor Colon26; assay: In vivo tumor growth; parameters: species or system BALB/c mice
Experimental: Murine colorectal CT26 (ATCC, CRL-2639) adenocarcinoma tumor cell line was used in the study. Cells were grown in RPMI-1640 supplemented with 10% fetal calf serum (FCS) and pen-strep-glut (all from PanEco, Moscow, Russian Federation). Cells were passaged by trypsinization using Trypsin/EDTA solution (PanEco, Moscow, Russian Federation) twice a week. Cell authentication was not performed by the authors.
Six- to eight-week-old female BALB/c mice were obtained from the Pushchino branch of Shemyakin-Ovchinnikov Institute of Bioorganic Chemistry RAS. All studies were conducted in an AAALAC accredited facility in compliance with the PHS Guidelines for the Care and Use of Animals in Research, protocol #325 from 24.05.2021
Colon-26 cells (10^5) were subcutaneously (s.c.) injected into the depilated flanks of 6-week-old female BALB/c mice. Mice (n = 20) were divided in three groups: control mice (n = 8) were injected with vehicle only; mice from group 1 (n = 6) and 2 (n = 6) were treated with 50 µL of 1 mM 7c injected s.c. near the tumors. […] The perpendicular diameter of each tumor was measured twice a week, and tumor volume was calculated using the following formula: tumor volume (mm^3) = a × b^2 × 0.5, where a represents the longest diameter, b represents the shortest diameter, and 0.5 is a constant used to calculate the volume of an ellipsoid. […]

Solubility = assay type: physicochemical

pIC50 (MCF7): 6.70
pIC50 (MDA-MB-231; Homo sapiens, MDA-MB-231, MTT, 72 h, standard deviations within 50%): 6.00
Solubility (Solubility): soluble only in DMSO
SMILES: O=C(NCCc1cccnc1)Nc1ccc(-c2ccc3c(N4CCOCC4)nc(N4CCOCC4)nc3c2)cc1 [Compound 7c, 1-(4-(2,4-Dimorpholinoquinazolin-7-yl)phenyl)-3-(2-(pyridin-3-yl)ethyl)urea]
pIC50 (keratinocytes HaCaT): 5.22
Toxicity for MDA-MB-231 (wild type PI3K) lower than for MCF7 (mutant PI3K) (MDA-MB-231; MDA-MB-231 versus MCF7): 5 times
pIC50 (fibroblasts L929): 5.52
pIC50 (macrophages J774): 6.40
Concentration inhibiting phosphorylation of Akt, mTOR, S6K (PI3K/Akt/mTOR proteins) [1]: 125 to 250 nM and 250 to 500 nM
Concentration triggering PARP-1 cleavage (PARP1 in MCF7 cells): 62 to 125 nM
Effect on tumor growth, late treatment of large tumors (group 2) ([2]; 50 µL of 1 mM 7c s.c. around tumor, from 400–500 mm^3, three injections): less evident but still significant; also recorded: tumor destruction
Effect on tumor growth, early treatment (group 1) ([2]; 50 µL of 1 mM 7c s.c. near tumor, once in 3 days, from 2–8 mm^3, post three injections, p < 0.05): significant
